Source: patent US7750003B2, “Compounds-943” (AstraZeneca AB, priority 2006, dated 2010)

These molecules were tested on phosphorylation of Serine 473 in Akt in MDA-MB-468 human breast adenocarcinoma cells (assay: In vitro phospho-Ser473 Akt assay (Test (c))). Conditions: Homo sapiens, MDA-MB-468, 2 h, MDA-MB-468 cells, 2 hours incubation; read-out: Test (c): IC50 versus Serine 473 in Akt.
Format: cell-based
Protocol: (c) In Vitro Phospho-Ser473 Akt Assay
This assay determines the ability of test compounds to inhibit phosphorylation of Serine 473 in Akt as assessed using Acumen Explorer technology (Acumen Bioscience Limited), a plate reader that can be used to rapidly quantitate features of images generated by laser-scanning.
A MDA-MB-468 human breast adenocarcinoma cell line (LGC Promochem, Teddington, Middlesex, UK, Catalogue No. HTB-132) was routinely maintained at 37° C. with 5% CO2 up to a confluency of 70-90% in DMEM containing 10% heat-inactivated FCS and 1% L-glutamine.
For the assay, the cells were detached from the culture flask using ‘Accutase’ (Innovative Cell Technologies Inc., San Diego, Calif., USA; Catalogue No. AT104) using standard tissue culture methods and resuspended in media to give 1.7×10^5 cells per mL. Aliquots (90 μl) were seeded into each of the inner 60 wells of a black Packard 96 well plate (PerkinElmer, Boston, Mass., USA; Catalogue No. 6005182) to give a density of 15000 cells per well. Aliquots (90 μl) of culture media were placed in the outer wells to prevent edge effects. The cells were incubated overnight at 37° C. with 5% CO2 to allow them to adhere.
On day 2, the cells were treated with test compounds and incubated for 2 hours at 37° C. with 5% CO2. Test compounds were prepared as 10 mM stock solutions in DMSO and serially diluted as required with growth media to give a range of concentrations that were 10-fold the required final test concentrations. Aliquots (10 μl) of each compound dilution were placed in a well (in triplicate) to give the final required concentrations. As a minimum response control, each plate contained wells having a final concentration of 100 μM LY294002 (Calbiochem, Beeston, UK, Catalogue No. 440202). As a maximum response control, wells contained 1% DMSO instead of test compound. Following incubation, the contents of the plates were fixed by treatment with a 1.6% aqueous formaldehyde solution (Sigma, Poole, Dorset, UK, Catalogue No. F1635) at room temperature for 1 hour.
All subsequent aspiration and wash steps were carried out using a Tecan 96 well plate washer (aspiration speed 10 mm/sec). The fixing solution was removed and the contents of the plates were washed with phosphate-buffered saline (PBS; 50 μl; Gibco, Catalogue No. 10010015). The contents of the plates were treated for 10 minutes at room temperature with an aliquot (50 μl) of a cell permeabilisation buffer consisting of a mixture of PBS and 0.5% Tween-20. The ‘permeabilisation’ buffer was removed and non-specific binding sites were blocked by treatment for 1 hour at room temperature of an aliquot (50 μl) of a blocking buffer consisting of 5% dried skimmed milk [‘Marvel’ (registered trade mark); Premier Beverages, Stafford, GB] in a mixture of PBS and 0.05% Tween-20. The ‘blocking’ buffer was removed and the cells were incubated for 1 hour at room temperature with rabbit anti phospho-Akt (Ser473) antibody solution (50 μl per well; Cell Signalling, Hitchin, Herts, U.K., Catalogue No 9277) that had been diluted 1:500 in ‘blocking’ buffer. Cells were washed three times in a mixture of PBS and 0.05% Tween-20. Subsequently, cells were incubated for 1 hour at room temperature with Alexafluor488 labelled goat anti-rabbit IgG (50 μl per well; Molecular Probes, Invitrogen Limited, Paisley, UK, Catalogue No. A11008) that had been diluted 1:500 in ‘blocking’ buffer. Cells were washed 3 times with a mixture of PBS and 0.05% Tween-20. An aliquot of PBS (50 μl) was added to each well and the plates were sealed with black plate sealers and the fluorescence signal was detected and analysed.
Fluorescence dose response data obtained with each compound were analysed and the degree of inhibition of Serine 473 in Akt was expressed as an IC50 value.
For CCNC(=O)Nc1ccc(-c2nc(CS(=O)(=O)c3ccncc3)cc(N3CCOC[C@@H]3C)n2)cc1 [Example 48a, 3-ethyl-1-[4-[4-[(3S)-3-methylmorpholin-4-yl]-6-(pyridin-4-ylsulfonylmethyl)pyrimidin-2-yl]phenyl]urea], the IC50 was 250 nM.
With C[C@H]1COCCN1c1cc(CN(C)C)nc(-c2ccc(NC(=O)NC3CC3)cc2)n1 [Example 49d, 3-cyclopropyl-1-[4-[4-(dimethylaminomethyl)-6-[(3S)-3-methylmorpholin-4-yl]pyrimidin-2-yl]phenyl]urea] the IC50 was 620 nM.
Molecule C[C@H]1COCCN1c1cc(CN2CCNC(=O)C2)nc(-c2ccc(NC(=O)NC3CC3)cc2)n1 [Example 49j, 3-cyclopropyl-1-[4-[4-[(3S)-3-methylmorpholin-4-yl]-6-[(3-oxopiperazin-1-yl)methyl]pyrimidin-2-yl]phenyl]urea] has an IC50 of 130 nM.
Molecule C[C@H]1COCCN1c1cc(CS(=O)(=O)CCO)nc(-c2ccc(NC(=O)NCc3cnn(C)c3)cc2)n1 [Example 53b, 1-[4-[4-(2-hydroxyethylsulfonylmethyl)-6-[(3S)-3-methylmorpholin-4-yl]pyrimidin-2-yl]phenyl]-3-[(1-methylpyrazol-4-yl)methyl]urea] has an IC50 of 3000 nM.
Molecule COCc1cc(N2CCOC[C@@H]2C)nc(-c2ccc(NC(=O)NC3CC3)cc2)n1 [Example 54, 3-Cyclopropyl-1-[4-[4-(methoxymethyl)-6-[(3S)-3-methylmorpholin-4-yl]pyrimidin-2-yl]phenyl]urea] has an IC50 of 110 nM.
With CNC(=O)Nc1ccc(-c2nc(N3CCOC[C@@H]3C)cc(C(C)(C)S(=O)(=O)C3CC3)n2)cc1 [Example 57, 1-[4-[4-(2-Cyclopropylsulfonylpropan-2-yl)-6-[(3S)-3-methylmorpholin-4-yl]pyrimidin-2-yl]phenyl]-3-methyl-urea] the IC50 was 250 nM.
Work on C[C@H]1COCCN1c1cc(C(C)(C)S(=O)(=O)C2CC2)nc(-c2ccc(NC(=O)NC(C)(C)CO)cc2)n1 [Example 57a, 1-[4-[4-(2-cyclopropylsulfonylpropan-2-yl)-6-[(3S)-3-methylmorpholin-4-yl]pyrimidin-2-yl]phenyl]-3-(1-hydroxy-2-methyl-propan-2-yl)urea] yielded an IC50 of 64 nM.
C[C@H]1COCCN1c1cc(C(C)(C)S(=O)(=O)C2CC2)nc(-c2ccc(NC(=O)Nc3cnn(C)c3)cc2)n1 [Example 57c, 1-[4-[4-(2-cyclopropylsulfonylpropan-2-yl)-6-[(3S)-3-methylmorpholin-4-yl]pyrimidin-2-yl]phenyl]-3-(1-methylpyrazol-4-yl)urea] was tested, and the IC50 was 360 nM.
In the case of CNC(=O)Nc1ccc(-c2nc(CS(=O)(=O)C3CC3)cc(N3CCOC[C@@H]3C)n2)cc1 [Example 57d, 1-[4-[4-(cyclopropylsulfonylmethyl)-6-[(3S)-3-methylmorpholin-4-yl]pyrimidin-2-yl]phenyl]-3-methyl-urea], the IC50 is reported as 840 nM.
For C[C@H]1COCCN1c1cc(CS(=O)(=O)C2CC2)nc(-c2ccc(NC(=O)NC(C)(C)CO)cc2)n1 [Example 57e, 1-[4-[4-(cyclopropylsulfonylmethyl)-6-[(3S)-3-methylmorpholin-4-yl]pyrimidin-2-yl]phenyl]-3-(1-hydroxy-2-methyl-propan-2-yl)urea], the IC50 was 380 nM.
For C[C@H]1COCCN1c1cc(CS(=O)(=O)C2CC2)nc(-c2ccc(NC(=O)NCCN(C)C)cc2)n1 [Example 57f, 1-[4-[4-(cyclopropylsulfonylmethyl)-6-[(3S)-3-methylmorpholin-4-yl]pyrimidin-2-yl]phenyl]-3-(2-dimethylaminoethyl)urea], the IC50 was 720 nM.
For C[C@H]1COCCN1c1cc(CS(=O)(=O)C2CC2)nc(-c2ccc(NC(=O)Nc3cnn(C)c3)cc2)n1 [Example 57g, 1-[4-[4-(cyclopropylsulfonylmethyl)-6-[(3S)-3-methylmorpholin-4-yl]pyrimidin-2-yl]phenyl]-3-(1-methylpyrazol-4-yl)urea], the IC50 was 95 nM.
In the case of C[C@H]1COCCN1c1cc(C(C)(C)S(=O)(=O)C2CC2)nc(-c2ccc(NC(=O)NC3CCC3)cc2)n1 [Example 57h, 3-cyclobutyl-1-[4-[4-(2-cyclopropylsulfonylpropan-2-yl)-6-[(3S)-3-methylmorpholin-4-yl]pyrimidin-2-yl]phenyl]urea], the IC50 is reported as 66 nM.
C[C@H]1COCCN1c1cc(C(C)(C)S(=O)(=O)C2CC2)nc(-c2ccc(NC(=O)NCCO)cc2)n1 [Example 57i, 1-[4-[4-(2-cyclopropylsulfonylpropan-2-yl)-6-[(3S)-3-methylmorpholin-4-yl]pyrimidin-2-yl]phenyl]-3-(2-hydroxyethyl)urea] showed an IC50 of 270 nM.
Work on CCNC(=O)Nc1ccc(-c2nc(CS(=O)(=O)C3CC3)cc(N3CCOC[C@@H]3C)n2)cc1 [Example 57j, 1-[4-[4-(cyclopropylsulfonylmethyl)-6-[(3S)-3-methylmorpholin-4-yl]pyrimidin-2-yl]phenyl]-3-ethyl-urea] yielded an IC50 of 70 nM.
CCNC(=O)Nc1ccc(-c2nc(N3CCOC[C@@H]3C)cc(C(C)(C)S(=O)(=O)C3CC3)n2)cc1 [Example 57k, 1-[4-[4-(2-cyclopropylsulfonylpropan-2-yl)-6-[(3S)-3-methylmorpholin-4-yl]pyrimidin-2-yl]phenyl]-3-ethyl-urea] was tested, and the IC50 was 340 nM.
With C[C@H]1COCCN1c1cc(CS(=O)(=O)C2CC2)nc(-c2ccc(NC(=O)NC3CCC3)cc2)n1 [Example 57l, 3-cyclobutyl-1-[4-[4-(cyclopropylsulfonylmethyl)-6-[(3S)-3-methylmorpholin-4-yl]pyrimidin-2-yl]phenyl]urea] the IC50 was 88 nM.
With C[C@H]1COCCN1c1cc(CS(=O)(=O)CCO)nc(-c2ccc(NC(=O)NC3CCC3)cc2)n1 [Example 59a, 3-cyclobutyl-1-[4-[4-(2-hydroxyethylsulfonylmethyl)-6-[(3S)-3-methylmorpholin-4-yl]pyrimidin-2-yl]phenyl]urea] the IC50 was 37 nM.
Work on CC(C)S(=O)(=O)Cc1cc(N2CCOC[C@@H]2C)nc(-c2ccc(NC(=O)NC3CCC3)cc2)n1 [Example 60, 3-Cyclobutyl-1-[4-[4-[(3S)-3-methylmorpholin-4-yl]-6-(propan-2-ylsulfonylmethyl)pyrimidin-2-yl]phenyl]urea] yielded an IC50 of 1000 nM.
With CCCNC(=O)Nc1ccc(-c2nc(CS(=O)(=O)C(C)C)cc(N3CCOC[C@@H]3C)n2)cc1 [Example 60a, 3-[4-[4-[(3S)-3-methylmorpholin-4-yl]-6-(propan-2-ylsulfonylmethyl)pyrimidin-2-yl]phenyl]-1-propyl-urea] the IC50 was 3300 nM.
For CC(C)CNC(=O)Nc1ccc(-c2nc(CS(=O)(=O)C(C)C)cc(N3CCOC[C@@H]3C)n2)cc1 [Example 60b, 1-[4-[4-[(3S)-3-methylmorpholin-4-yl]-6-(propan-2-ylsulfonylmethyl)pyrimidin-2-yl]phenyl]-3-(2-methylpropyl)urea], the IC50 was 1800 nM.
CC(C)S(=O)(=O)Cc1cc(N2CCOC[C@@H]2C)nc(-c2ccc(NC(=O)NCCCO)cc2)n1 [Example 60c, 3-(3-hydroxypropyl)-1-[4-[4-[(3S)-3-methylmorpholin-4-yl]-6-(propan-2-ylsulfonylmethyl)pyrimidin-2-yl]phenyl]urea] was tested, and the IC50 was 770 nM.
For CC(C)S(=O)(=O)Cc1cc(N2CCOC[C@@H]2C)nc(-c2ccc(NC(=O)Nc3ccc(C(F)(F)F)cc3)cc2)n1 [Example 60d, 1-[4-[4-[(3S)-3-methylmorpholin-4-yl]-6-(propan-2-ylsulfonylmethyl)pyrimidin-2-yl]phenyl]-3-[4-(trifluoromethyl)phenyl]urea], the IC50 was 590 nM.
Molecule CC(C)S(=O)(=O)Cc1cc(N2CCOC[C@@H]2C)nc(-c2ccc(NC(=O)Nc3ccccn3)cc2)n1 [Example 60e, 1-[4-[4-[(3S)-3-methylmorpholin-4-yl]-6-(propan-2-ylsulfonylmethyl)pyrimidin-2-yl]phenyl]-3-pyridin-2-yl-urea] has an IC50 of 1300 nM.
